Source: patent US20120122936A1, “LEAVE-ON NONSOLID SKIN CONDITIONING COMPOSITIONS CONTAINING 12-[(12-HYDROXYOCTADECANOYL)OXY] OCTADECANOIC ACID” (CONOPCO, INC., D/B/A UNILEVER, priority 2010, published 2012)

Columns and labels:
[1] = Observation of mixtures with lipophilic cosmetically acceptable carriers (gelling vs flowable liquid); type: physicochemical; settings: for Result of mixtures with indicated carriers: 10% in 90% carrier, summary of Table 3
Procedure: Various mixtures were prepared with common lipohilic cosmetically acceptable carrier that are liquid at temperatures up to 40° C. Observation were recorded in Table 3.

[2] = system: primary human neonatal fibroblasts; test: ATP production by primary human fibroblasts, CellTiter-Glo luminescent cell viability assay; type: cell-based; settings: for Luminescence reading (average): 2 x 24 h dosing, 4 wells, 0.1% DMSO control 2245457; for Effect on fibroblast energy production (ATP, luminescence readings): statistically significant improvement at 100 μM
Procedure: The effect of 12HSA and 12-[(12-hydroxyoctadecanoyl)oxy]octadecanoic acid on ATP production by primary human fibroblasts was assayed.
The samples were prepared as in Example 2, except the final concentrations were at 0.1 μM, 1 μM, 10 μM, 100 μM for both compounds. Again 0.1% DMSO in media is used as the vehicle control. Primary human neonatal fibroblasts grown in DMEM medium (high glucose supplemented with 2 mM Lglutamine, 10% fetal bovine serum, antibiotic) to 70% confluency, trypsinized, and re-suspended in medium. 7,500 cells seeded per well in the inner 60 wells of a 96-well plate in the same DMEM medium and grown for 3 days. The medium removed and the cells washed with serum-free DMEM, and then dosed with 200 μl serum-free DMEM medium containing appropriate concentrations of the testing compounds. Each dosing was replicated in 4 wells. After 24 hours, test compound solution was removed and the cells were treated with a fresh solution of the same treatment. After another 24 hours, the ATP production of the cultures was assayed by CellTiter-Glo luminescent Cell viability assay (Promega #G7572) and luminescence readings measured. Average readings were calculated for every treatment.
Statistical analysis was done by student t-Test with the assumption that the two samples had two tailed distribution with equal variance.

[3] = system: primary human keratinocytes; test: Involucrin expression (differentiation) in primary human keratinocytes, Western blot; type: cell-based; settings: for Involucrin expression (arbitrary unit) at day 1: day 1 (24 h), 0.1% DMSO control 27.85; for Involucrin expression (arbitrary unit) at day 2: day 2 (48 h), 0.1% DMSO control 33.91; for Effect on human keratinocyte differentiation (involucrin expression compared to vehicle control): vs 0.1% DMSO, day 2
Procedure: The effect of 12HSA and 12-[(12-hydroxyoctadecanoyl)oxy]octadecanoic acid on differentiation in primary human keratinocytes was evaluated.
The compounds were dissolved in DMSO at 10 mM as the initial stock solutions and then diluted to appropriate final concentrations, 0.1 μM, 1 μM, 10 μM for 12-[(12-hydroxyoctadecanoyl)oxy]octadecanoic acid and 1 μM, 10 μM for the monomer with culture medium for treatments. 0.1% DMSO was used as the vehicle control. Primary human keratinocytes (Passage 2) grown to 70% confluency in EpiLife medium (Gibco MEP1500CA, 0.06 mM Calcium), trypsinized, cell number counted and Re-suspended in medium to make final cell counts at 5×10^4/ml. 100, 000 cells seeded per well in a 6 well plate. The cells again grown to 70% confluency, and then treated with 12-HSA monomer, 12-[(12-hydroxyoctadecanoyl)oxy]octadecanoic acid, and 0.1% DMSO as control. Treated cells incubated for 24 h and 48 h, and harvested at the corresponding time points. Proteins were extracted from the cultures and protein concentration was quantified by Quick start Bradford dye reagent (BioRad #500-0205). 5 ug protein samples were subjected to 4-20% protein gel (BioRad Criterion #345-0034), separated by running gel at 175 Volt for about 1 hour. Proteins were transferred to PVDF membrane (iBlot Gel transfer stacks PVDF, Invitrogen IB4010-01). The PVDF membrane was blocked in 1% BSA/PBS for 30 min and incubated with involucrin primary antibody (1:4000 dilution) in 1% BSA/PBS at 4° C. O/N (Sigma 19018), washed three times with TBS-Tween (Sigma T-9039) for 15 min each. The membrane then incubated with a secondary antibody in 1% BSA/PBS at RT for 1 h (Cy5-conjugated Affipure Goat anti mouse IgG, Jackson ImmunoResearch Lab #115-175-003), washed three times with TBS-Tween for 15 min each, and scanned with Licor/Odyssey (Li-Cor Bioscience). The images obtained were analyzed for the involucrin bands for signal intensity by Odyssey v3.0 analysis program (Li-Cor Bioscience).

Observations ([1]; 10% in 90% DC200-10cS) | Observations ([1]; 10% in 90% Light Mineral Oil) | Observations ([1]; 10% in 90% Sunflower seed oil) | Observations ([1]; 10% in 90% Tween40) | Result of mixtures with indicated carriers [1] | Observations ([1]; 10% in 90% cyclomethicone-D5) | Observations ([1]; 10% in 90% isostearyl alcohol) | Observations ([1]; 10% in 90% oleic acid) | SMILES | Luminescence reading (average) ([2]; 0.1 μM) | Luminescence reading (average) ([2]; 1 μM) | Luminescence reading (average) ([2]; 10 μM) | Luminescence reading (average) ([2]; 100 μM) | Effect on fibroblast energy production (ATP, luminescence readings) [2] | Involucrin expression (arbitrary unit) at day 1 ([3]; 1 μM) | Involucrin expression (arbitrary unit) at day 2 ([3]; 1 μM) | Involucrin expression (arbitrary unit) at day 1 ([3]; 10 μM) | Involucrin expression (arbitrary unit) at day 2 ([3]; 10 μM) | Effect on human keratinocyte differentiation (involucrin expression compared to vehicle control) [3] | also measured
flowable | flowable | clear | clear | flowable, or even clear, liquids | flowable | clear | clear | CCCCCCC(O)CCCCCCCCCCC(=O)OC(CCCCCC)CCCCCCCCCCC(=O)O (stereo not shown) [12-[(12-hydroxyoctadecanoyl)oxy]octadecanoic acid] | 2261382 | 2550326 | 2594799 | 2794979 | stimulated fibroblast energy production | 36.67 arbitrary unit | 33.14 arbitrary unit | 33.77 arbitrary unit | 29.46 arbitrary unit | did not have an effect | Observations ([1]; 10% in 90% Isopropyl myristate): liquid; Involucrin expression (arbitrary unit) at day 1 ([3]; 0.1 μM): 35.85 arbitrary unit; Involucrin expression (arbitrary unit) at day 2 ([3]; 0.1 μM): 32.61 arbitrary unit
paste | hard gel | hard gel | gel | gelled the carrier | soft gel | gel | gel | CCCCCCC(O)CCCCCCCCCCC(=O)O (stereo not shown) [12HSA, 12-hydroxyoctadecanoic acid, reference compound] | 2359722 | 2398308 | 2304763 | 2151797 | did not | 26.7 arbitrary unit | 56.03 arbitrary unit | 34.51 arbitrary unit | 69.52 arbitrary unit | stimulated human keratinocyte differentiation | Observations ([1]; 10% in 90% Isopropyl palmitate): hard gel
